Converted amounts (≈) assume the structure as drawn. The source made the active and inactive calls. The rule behind the calls is not given here.
Key:
[1] = molecular target: T1, Furin (Homo sapiens, UniProt P09958); test: Inhibition of recombinant human furin using Boc-RVRR-AMC as substrate assessed as inhibition constant by fluorescence based analysis
[2] = molecular target: T2, Suppressor of tumorigenicity 14 protein (Homo sapiens, UniProt Q9Y5Y6); test: Binding affinity to recombinant human Matriptase using Boc-QAR-AMC as substrate assessed as inhibition constant by fluorescence based analysis
T2 sequence (Q9Y5Y6 whole entry): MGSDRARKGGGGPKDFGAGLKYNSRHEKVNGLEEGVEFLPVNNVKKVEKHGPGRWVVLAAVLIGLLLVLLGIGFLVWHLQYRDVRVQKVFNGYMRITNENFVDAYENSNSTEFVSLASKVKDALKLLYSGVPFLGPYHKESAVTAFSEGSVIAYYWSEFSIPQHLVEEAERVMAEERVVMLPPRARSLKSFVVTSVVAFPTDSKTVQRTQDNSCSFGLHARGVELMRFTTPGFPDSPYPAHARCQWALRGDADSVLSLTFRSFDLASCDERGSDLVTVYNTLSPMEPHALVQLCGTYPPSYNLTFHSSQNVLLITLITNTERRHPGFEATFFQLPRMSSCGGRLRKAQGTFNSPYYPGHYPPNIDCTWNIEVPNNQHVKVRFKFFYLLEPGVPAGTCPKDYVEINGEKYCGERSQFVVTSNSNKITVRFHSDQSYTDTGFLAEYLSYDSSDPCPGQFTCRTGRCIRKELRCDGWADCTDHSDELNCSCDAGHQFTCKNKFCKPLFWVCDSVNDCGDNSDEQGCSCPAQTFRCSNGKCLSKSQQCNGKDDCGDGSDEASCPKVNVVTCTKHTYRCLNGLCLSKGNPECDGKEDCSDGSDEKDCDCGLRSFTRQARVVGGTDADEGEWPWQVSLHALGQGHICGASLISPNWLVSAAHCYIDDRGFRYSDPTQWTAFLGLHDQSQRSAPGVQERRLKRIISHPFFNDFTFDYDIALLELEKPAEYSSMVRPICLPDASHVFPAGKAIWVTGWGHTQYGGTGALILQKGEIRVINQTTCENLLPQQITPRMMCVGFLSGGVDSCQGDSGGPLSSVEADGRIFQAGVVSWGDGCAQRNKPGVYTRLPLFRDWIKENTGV

[3] = tested on: Caco-2; test: Disruption of epithelial integrity in human Caco-2 cells assessed as change in TEER modulation after 8 days; assay type: functional, cell-based; conditions: Caco-2, 192 h
[4] = molecular target: T3, Transmembrane protease serine 6 (Homo sapiens, UniProt Q8IU80); test: Competitive tight binding inhibition of recombinant human TMPRSS6 using Boc-QAR-AMC as substrate assessed as inhibition constant by fluorescence based analysis
T3 sequence (Q8IU80 whole entry): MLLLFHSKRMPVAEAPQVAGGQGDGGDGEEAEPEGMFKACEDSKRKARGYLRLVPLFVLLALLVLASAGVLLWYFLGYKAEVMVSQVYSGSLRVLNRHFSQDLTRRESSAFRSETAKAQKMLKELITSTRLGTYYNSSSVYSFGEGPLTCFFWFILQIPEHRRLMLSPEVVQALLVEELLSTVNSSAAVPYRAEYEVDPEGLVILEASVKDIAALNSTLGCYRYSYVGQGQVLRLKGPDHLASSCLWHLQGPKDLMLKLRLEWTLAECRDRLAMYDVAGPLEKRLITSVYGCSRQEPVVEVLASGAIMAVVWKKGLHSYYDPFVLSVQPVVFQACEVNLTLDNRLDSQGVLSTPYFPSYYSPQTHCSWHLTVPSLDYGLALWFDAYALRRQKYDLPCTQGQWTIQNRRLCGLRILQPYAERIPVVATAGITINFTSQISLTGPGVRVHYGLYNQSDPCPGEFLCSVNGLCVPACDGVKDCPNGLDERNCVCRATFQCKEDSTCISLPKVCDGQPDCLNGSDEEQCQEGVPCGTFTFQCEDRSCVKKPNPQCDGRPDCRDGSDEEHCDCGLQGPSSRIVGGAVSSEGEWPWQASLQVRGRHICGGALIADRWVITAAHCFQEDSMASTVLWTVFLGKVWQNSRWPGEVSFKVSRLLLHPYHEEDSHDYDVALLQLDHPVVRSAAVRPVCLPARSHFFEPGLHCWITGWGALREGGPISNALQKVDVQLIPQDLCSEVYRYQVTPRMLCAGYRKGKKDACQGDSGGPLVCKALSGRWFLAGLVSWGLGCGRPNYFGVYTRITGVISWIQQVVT

[5] = Cytotoxicity against HEK cells assessed as reduction in cell viability measured for 24 hrs by celltiter-glo 2.0 assay; assay type: toxicity, cell-based; conditions: human
[6] = molecular target: T4, Transmembrane protease serine 6 (Homo sapiens) (UniProt Q8IU80); test: Inhibition of recombinant human TMPRSS6 at 100 nM by Michaelis-Menten analysis relative to control
T4 sequence (whole entry): T3 sequence (Q8IU80 whole entry)

[7] = molecular target: T1, Furin; test: Inhibition of furin (unknown origin)
[8] = organism: Homo sapiens; test: Selectivity index, ratio of IC50 for inhibition of human Matriptase transfected in HEK293SL cells using Boc-QAR-AMC as substrate to IC50 for inhibition of human TMPRSS6 transfected in HEK293SL cells using Boc-QAR-AMC as substrate; assay type: cell-based
[9] = Metabolic stability in Sprague-Dawley rat microsome assessed as half life measured for 120 mins in presence of NADPH by UPLC-MS analysis; assay type: ADME; conditions: microsomes, 2 h
[10] = tested on: Caco-2; test: Disruption of epithelial integrity in human Caco-2 cells assessed as change in TEER modulation at 10 uM after 8 days; assay type: functional, cell-based; conditions: time 8.0 day
[11] = molecular target: T3, Transmembrane protease serine 6; test: Inhibition of human TMPRSS6 transfected in HEK293SL cells using Boc-QAR-AMC as substrate measured for 24 hrs; assay type: cell-based
[12] = molecular target: T5, Coagulation factor X (Homo sapiens, UniProt P00742); test: Inhibition of recombinant human FXA using Boc-QAR-AMC as substrate assessed as inhibition constant by fluorescence based analysis
T5 sequence (P00742 41-179 limits assumed): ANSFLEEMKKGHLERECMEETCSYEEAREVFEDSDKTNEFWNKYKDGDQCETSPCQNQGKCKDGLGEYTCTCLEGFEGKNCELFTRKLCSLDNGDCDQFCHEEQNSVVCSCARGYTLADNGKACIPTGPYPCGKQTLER
T5 sequence (P00742 235-488 limits assumed): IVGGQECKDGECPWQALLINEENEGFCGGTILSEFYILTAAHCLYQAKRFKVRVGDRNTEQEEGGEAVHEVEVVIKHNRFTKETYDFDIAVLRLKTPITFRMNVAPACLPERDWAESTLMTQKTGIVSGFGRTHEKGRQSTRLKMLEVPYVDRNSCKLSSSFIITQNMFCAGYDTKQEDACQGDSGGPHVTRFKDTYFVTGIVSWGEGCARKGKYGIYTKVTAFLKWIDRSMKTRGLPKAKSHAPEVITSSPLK

[13] = Metabolic stability in Sprague-Dawley rat microsome assessed as intrinsic clearance measured for 120 mins in presence of NADPH by UPLC-MS analysis; assay type: ADME; conditions: microsomes, 2 h
[14] = molecular target: T3, Transmembrane protease serine 6; test: Binding affinity to recombinant human TMPRSS6 using Boc-QAR-AMC as substrate assessed as inhibition constant by fluorescence based analysis
[15] = Stability in Sprague-Dawley rat plasma assessed as parent compound remaining at 24 hrs by UPLC-MS analysis; assay type: ADME, cell-free
[16] = Solubility of compound in PBS at pH 7.4 measured for 90 mins by UPLC analysis; assay type: physicochemical; conditions: buffer, pH 7.4, 1.5 h
[17] = molecular target: T6, Prothrombin (Homo sapiens, UniProt P00734); test: Inhibition of recombinant human thrombin using Boc-QAR-AMC as substrate assessed as inhibition constant by fluorescence based analysis
[18] = Apparent Permeability of compound in PBS buffer at pH 7.4 incubated for 17 hrs by PAMPA assay; assay type: ADME; conditions: pH 7.4, 17 h
[19] = molecular target: T2, Suppressor of tumorigenicity 14 protein; test: Competitive tight binding inhibition of recombinant human Matriptase using Boc-QAR-AMC as substrate assessed as inhibition constant by fluorescence based analysis
[20] = molecular target: T6, Prothrombin; test: Inhibition of thrombin (unknown origin)
[21] = molecular target: T7, Suppressor of tumorigenicity 14 protein (Homo sapiens) (UniProt Q9Y5Y6); test: Inhibition of recombinant human Matriptase at 100 nM by Michaelis-Menten analysis relative to control
T7 sequence (whole entry): T2 sequence (Q9Y5Y6 whole entry)

[22] = organism: Homo sapiens; test: (§1) Selectivity index, ratio of Ki for binding affinity to recombinant human Matriptase using Boc-QAR-AMC as substrate assessed as inhibition constant by fluorescence based analysis to Ki for binding affinity to recombinant human TMPRSS6 using Boc-QAR-AMC as substrate assessed as inhibition constant by fluorescence based analysis
[23] = molecular target: T5, Coagulation factor X; test: Inhibition of FXA (unknown origin)
[24] = molecular target: T2, Suppressor of tumorigenicity 14 protein; test: Inhibition of human Matriptase transfected in HEK293SL cells using Boc-QAR-AMC as substrate measured for 24 hrs; assay type: cell-based
[25] = organism: Homo sapiens; test: as §1, with “for competitive tight” for “for”, “inhibition of” for “affinity to”

T1 sequence (P09958 whole entry): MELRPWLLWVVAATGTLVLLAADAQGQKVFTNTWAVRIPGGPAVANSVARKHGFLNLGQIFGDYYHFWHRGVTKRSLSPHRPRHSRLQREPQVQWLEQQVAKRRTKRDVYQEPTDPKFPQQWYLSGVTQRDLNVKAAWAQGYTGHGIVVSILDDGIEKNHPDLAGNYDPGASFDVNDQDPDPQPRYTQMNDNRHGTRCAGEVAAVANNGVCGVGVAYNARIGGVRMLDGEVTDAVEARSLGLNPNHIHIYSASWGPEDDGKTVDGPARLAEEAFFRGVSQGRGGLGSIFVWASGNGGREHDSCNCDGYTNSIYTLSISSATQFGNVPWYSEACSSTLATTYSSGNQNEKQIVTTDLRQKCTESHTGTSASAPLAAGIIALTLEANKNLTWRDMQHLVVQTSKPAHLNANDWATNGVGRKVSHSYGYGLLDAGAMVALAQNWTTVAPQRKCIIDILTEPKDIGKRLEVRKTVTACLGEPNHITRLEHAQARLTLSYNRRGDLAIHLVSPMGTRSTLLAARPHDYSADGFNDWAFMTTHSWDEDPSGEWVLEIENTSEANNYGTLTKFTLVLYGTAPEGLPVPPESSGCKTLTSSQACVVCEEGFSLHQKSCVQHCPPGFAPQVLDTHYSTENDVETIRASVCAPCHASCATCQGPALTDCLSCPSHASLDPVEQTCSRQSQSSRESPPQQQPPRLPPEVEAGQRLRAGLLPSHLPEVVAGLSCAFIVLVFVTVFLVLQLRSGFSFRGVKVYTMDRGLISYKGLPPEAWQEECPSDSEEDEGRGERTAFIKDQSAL

Ki [1]: > 10 µM
Ki [2]: 0.0086 µM
IC50 [3]: 0.0181 µM
Ki [4]: 0.0006 µM
inhibition [6]: 1%
Ki [7]: > 30 µM
t1/2 [9]: > 2 h
IC50 [11]: 0.0044 µM
Ki [12]: 2.32 µM
CLH [13]: 1.12 µL/min/mg
Ki [14]: 0.0012 µM
Stability [15]: 6%
solubility [16]: 250 µM (≈ 169 µg/mL)
Ki [17]: 0.053 µM
Papp [18]: 0.004 10^-6 cm/s
Ki [19]: 0.0048 µM
Ki [20]: 1.1 µM
inhibition [21]: 5%
Ratio Ki [22]: 7.2
Ki [23]: 0.323 µM
IC50 [24]: 0.0181 µM
Ratio Ki [25]: 8
Compound: CC(C)[C@H](NC(=O)[C@H](Cc1cscn1)NC(=O)CCc1ccccc1)C(=O)N[C@@H](CCCNC(=N)N)C(=O)c1nc2ccccc2s1
Activity [5]: Non-Toxic
Ratio IC50 [8]: 4
Activity [10]: Active

From ChEMBL document CHEMBL5550199, “Rational In Silico Design of Selective TMPRSS6 Peptidomimetic Inhibitors via Exploitation of the S2 Subpocket” (J Med Chem, 2024)
